Laboratory results from publication PMC11799985 (ACS Omega, 2024).
“Also recorded” adds a separate entry of the source. Like-named read-outs stand apart in the source and are kept apart here.

Target: T1, TbSir2rp1 (Trypanosoma brucei brucei, UniProt Q57V41)
T1 construct: The TbSir2rp1 gene was cloned into the pET24(+) expression plasmid (Novagen); His tag; made in house; host or cells: Escherichia coli BL21-Codon Plus (DE3)-RIL
T1 sequence (Q57V41 1-351): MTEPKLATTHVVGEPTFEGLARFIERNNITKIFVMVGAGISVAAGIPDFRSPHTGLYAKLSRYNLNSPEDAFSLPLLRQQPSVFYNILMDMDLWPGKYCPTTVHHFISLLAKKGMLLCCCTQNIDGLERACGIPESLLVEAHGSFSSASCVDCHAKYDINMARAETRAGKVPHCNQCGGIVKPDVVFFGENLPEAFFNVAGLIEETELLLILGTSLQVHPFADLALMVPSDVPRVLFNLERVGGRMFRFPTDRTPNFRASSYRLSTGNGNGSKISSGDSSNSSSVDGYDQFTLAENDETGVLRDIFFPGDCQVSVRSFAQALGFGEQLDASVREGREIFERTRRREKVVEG
Test: biochemical
Conditions: for ligand efficiency (LE): LE = –R·T·ln(IC50)/HAC, from TbSir2rp1 IC50; for Hill coefficient (nH): concentration–response curve against TbSir2rp1; for IC50: TbSir2rp1, enzyme 1 μM, NAD+ 100 μM, acetylated peptide 50 μM, 37 °C, 2 h, read-out: IC50
Experimental: The acetylated peptide corresponds to the sequence Abz-Gly-Pro-acetylLys-SerGln–EDDnp, where Abz is ortho-aminobenzoic acid and EDDnp is N-[2,4-dinitrophenyl]ethylenediamine.
To halt the deacetylation reaction, 4 mM nicotinamide was used. For each pair of wells in the 96-well plate, 0.2 mg/mL of trypsin was added to only one well to hydrolyze the acetylated peptide, enabling fluorescence emission. Fluorescence was measured immediately at 420 nm with excitation at 320 nm using a SpectraMax M2 microplate reader (Molecular Devices).
Deacetylation activity was determined by the difference between the well where trypsin was added and the well without trypsin. All assays were performed in triplicate, and activity values were reported as means ± standard deviations with outliers identified and excluded from the calculations. Statistical analyses were conducted using Prism 7 software (GraphPad).
The screening of the 90 fragments was performed at a single concentration of 500 μM in triplicate. The enzyme was used at 1 μM, and the substrates NAD^+ and acetylated peptide were used at 100 and 50 μM, respectively. Incubation was carried out at 37.0 °C for 2 h. Each fragment was added to a pair of wells, with trypsin being added to only one well, as previously described for inhibitory activity calculation. […] Ligand efficiency (LE) was calculated as LE = –R·T·ln(IC50)/HAC using IC50 values instead of KD for comparison. […] The inhibition mechanism was characterized using Lineweaver–Burk plots under five concentrations of each substrate and three concentrations of the fragment. IC50 values were determined with at least seven different concentrations, and Lineweaver–Burk analysis used six concentrations.

[1] = read-out: % Inhibition TbSir2rp1, Table S2, complete fragment library, single concentration of 500 μM
[2] = read-out: % Inhibition TbSir2rp1 at 500 μM, Table 1, fragment 500 μM, triplicate, mean ± SD

Row | SMILES | inhibition at 500 µM [1] | further results
1 | COc1cc(C)c(NC(C)=O)cn1 [COC1=NC=C(NC(C)=O)C(C)=C1] | 1.6 ± 13% | 
2 | CCn1cc(C(=O)O)c(=O)c2ccc(C)nc21 [O=C(C1=CN(CC)C2=C(C=CC(C)=N2)C1=O)O] | -6.5 ± 2.2% | 
3 | C/C(=N\NC(N)=O)c1ccncc1 [C/C(C1=CC=NC=C1)=N\NC(N)=O] | 31 ± 13% | 
4 | CCOc1ccc(NC(C)=O)cc1 [CC(NC1=CC=C(OCC)C=C1)=O] | -5.5 ± 1.5% | 
5 | CC(=O)n1ncc2cc(Cl)ncc21 [ClC1=NC=C(N(C(C)=O)N=C2)C2=C1] | 19 ± 9.9% | 
6 | CS(=O)(=O)Nc1cccc(-c2ccccc2)c1 [CS(NC1=CC=CC(C2=CC=CC=C2)=C1)(=O)=O] | 35 ± 3.7% | 
7 | CCC1(CC)C(=O)NC(=O)NC1=O [O=C(NC(C1(CC)CC)=O)NC1=O] | 19 ± 6% | 
8 | C(=N\c1nnc(Cc2ccccc2)o1)/c1ccccc1 | 41 ± 12% | 
9 | O=S(=O)(c1ccc(Cl)cc1)c1ccc(Cl)cc1 [ClC1=CC=C(S(C2=CC=C(Cl)C=C2)(=O)=O)C=C1] | 44 ± 12% | 
10 | CC1(C)CCC2=C(O1)c1ccccc1C(=O)C2=O [O=C1C2=C(OC(C)(C)CC2)C3=CC=CC=C3C1=O] | 43 ± 5.2% | 
11 | NNC(=O)/C=C/c1ccccc1 [NNC(/C=C/C1=CC=CC=C1)=O] | 42 ± 8.5% | 
12 | O=C1Nc2ccccc2C1=O [O=C1NC2=C(C=CC=C2)C1=O] | 49 ± 0.31% | 
13 | Cn1cnc2c1c(=O)[nH]c(=O)n2C [O=C(N1)N(C)C2=C(N(C)C=N2)C1=O] | 17 ± 4.4% | 
14 | Sc1nnc(Cc2ccccc2)s1 [SC1=NN=C(CC2=CC=CC=C2)S1] | 9.4 ± 1% | 
15 | Cc1ccc(S(=O)(=O)n2cccn2)cc1 [CC1=CC=C(S(N2N=CC=C2)(=O)=O)C=C1] | 8.4 ± 20% | 
16 | O=c1ccc2ccccc2[nH]1 [Fragment 6] | 60 ± 5.5% | ligand efficiency (LE): 0.41; Hill coefficient (nH): 1.19; inhibition at 500 µM [2]: 59.7 ± 5.5%
17 | Cc1cccc(C)c1NC1=C(O)C(=O)c2ccccc2C1=O | 39 ± 4.6% | 
18 | Cc1ccc(S(=O)(=O)NN)cc1 [NNS(C1=CC=C(C)C=C1)(=O)=O] | 53 ± 5.2% | 
19 | CN[C@@H](C)[C@H](O)c1ccccc1 [C[C@H](NC)[C@@H](C1=CC=CC=C1)O] | 23 ± 6.4% | 
20 | c1ccc(C2CN3CCSC3=N2)cc1 (centres unmarked) [C12=NC(C3=CC=CC=C3)CN1CCS2] | 10 ± 1.4% | 
21 | O=[N+]([O-])c1cccc(C2=NCCO2)c1 [O=[N+](C1=CC=CC(C2=NCCO2)=C1)[O-]] | 44 ± 24% | 
22 | CN(C)c1ccc(/C=N/c2nnc(-c3ccccc3)o2)cc1 [Fragment 4] | 78 ± 2.3% | ligand efficiency (LE): 0.25; IC50: 94.4 µM; Hill coefficient (nH): 1.10; inhibition at 500 µM [2]: 78.4 ± 2.3%
23 | Nc1ccc(S(=O)(=O)c2ccc(N)cc2)cc1 [NC1=CC=C(S(C2=CC=C(N)C=C2)(=O)=O)C=C1] | 48 ± 4.1% | 
24 | O=C(/C=C/c1ccccc1Cl)c1ccc2c(c1)OCO2 [Fragment 12] | 102 ± 5.9% | inhibition at 500 µM [2]: 102 ± 5.9%

Row | SMILES | inhibition at 500 µM [1] | further results
25 | CCOC(=O)c1ccc(N)cc1 [O=C(OCC)C1=CC=C(N)C=C1] | 12 ± 1.4% | 
26 | CC1(C)CCC2=C(O1)C(=O)c1ccccc1C2=O [O=C(C1=C2OC(C)(C)CC1)C3=CC=CC=C3C2=O] | 33 ± 14% | 
27 | Nc1ccc(Nc2ccccc2)cc1 [Fragment 1.5] |  | IC50: > 500 µM
28 | NNC(=O)c1ccncc1 [O=C(C1=CC=NC=C1)NN] | -4.9 ± 2.4% | 
29 | Nc1ccc(S(N)(=O)=O)cc1 [O=S(C1=CC=C(N)C=C1)(N)=O] | -4.7 ± 2.3% | 
30 | NNC(=O)Cc1cccnc1 [O=C(NN)CC1=CN=CC=C1] | 2.3 ± 22% | 
31 | Cc1oc2ncccc2c1C(=O)O [CC1=C(C(O)=O)C2=C(O1)N=CC=C2] | 19 ± 17% | 
32 | O=C1C(O)=C(Nc2ccc(F)cc2)C(=O)c2ccccc21 | 71 ± 23% | 
33 | O=C1NCCn2cccc21 [O=C1C2=CC=CN2CCN1] | -35 ± 5% | 
34 | NC(=O)N1c2ccccc2CC(=O)c2ccccc21 [O=C(N)N1C2=CC=CC=C2CC(C3=CC=CC=C31)=O] | 0.85 ± 6.5% | 
35 | CCOc1ccc2nc(N)sc2c1 [Fragment 1.4] |  | inhibition of TbSir2rp1 (in words): did not inhibit; also recorded: No inhibition
36 | O=c1cc(-c2ccccc2)c2c(O)cc(O)cc2o1 [OC1=CC(O)=CC(O2)=C1C(C3=CC=CC=C3)=CC2=O] | 17 ± 27% | 
37 | CC(C)(Oc1ccc(C2CC2(Cl)Cl)cc1)C(=O)O (centres unmarked) [CC(C)(OC1=CC=C(C2C(Cl)(Cl)C2)C=C1)C(O)=O] | 4.9 ± 4.7% | 
38 | CCc1[nH][nH]c(=O)c1-c1cccnc1O [Fragment 3] | 88 ± 14% | ligand efficiency (LE): 0.37; Hill coefficient (nH): 1.77; inhibition at 500 µM [2]: 88.3 ± 14.2%
39 | C1CN2CCN1CC2 [N1(CC2)CCN2CC1] | 2.7 ± 2.6% | 
40 | CC(C)NCC1CCc2cc(CO)c([N+](=O)[O-])cc2N1 (centres unmarked) |  | inhibition at 500 µM (read-out: % Inhibition TbSir2rp1): 24 ± 7.9%
41 | CCOC1NN=C(c2ccccc2)N1 (centres unmarked) [CCOC1NC(C2=CC=CC=C2)=NN1] | -3.3 ± 1.9% | 
42 | CCOC(=O)c1c(C)oc2ncc(Br)cc12 [CC1=C(C(OCC)=O)C2=C(O1)N=CC(Br)=C2] | -7.1 ± 9.1% | 
43 | COC1=CC(=O)c2ccccc2C1=O [O=C(C1=C2C=CC=C1)C(OC)=CC2=O] | 44 ± 3.7% | 
44 | Nc1cc2nc(-c3cccc(C(F)(F)F)c3)cn2cn1 | 19 ± 28% | 
45 | CC(=O)NCCN1C(=O)CNC1=O [O=C(CN1)N(CCNC(C)=O)C1=O] | 5.8 ± 3.4% | 
46 | O=C(/C=C/c1ccc(Cl)cc1)c1cccs1 [O=C(/C=C/C1=CC=C(Cl)C=C1)C2=CC=CS2] | 32 ± 8.5% | 
47 | C(=N\c1nncs1)/c1ccc(Sc2ccccc2)cc1 | 38 ± 1.7% | 
48 | N=C(N)N/N=C/c1cccs1 [Fragment 10] | 56 ± 4.9% | inhibition at 500 µM [2]: 55.7 ± 4.9%

Row | SMILES | inhibition at 500 µM [1] | further results
49 | Nc1ccc(C(=O)c2ccccc2)cc1 [Fragment 1.2] |  | ligand efficiency (LE): 0.37; IC50: 80.9 µM; Hill coefficient (nH): 0.72; inhibition mechanism (Lineweaver–Burk plot) (for both substrates, acetylated peptide and NAD+): competitive
50 | CC(=O)Nc1ccccc1 [CC(NC1=CC=CC=C1)=O] | 7.7 ± 21% | 
51 | Cn1c(=O)c2[nH]cnc2n(C)c1=O [O=C(N1C)N(C)C2=C(NC=N2)C1=O] | -2.1 ± 3% | 
52 | CCC1(c2ccccc2)C(=O)NC(=O)NC1=O [O=C(NC(C1(CC)C2=CC=CC=C2)=O)NC1=O] | 2.7 ± 1.6% | 
53 | NC(=O)c1ncn([C@@H]2O[C@H](CO)[C@@H](O)[C@H]2O)n1 | -11 ± 11% | 
54 | Cc1cn([C@H]2C[C@H](N=[N+]=[N-])[C@@H](CO)O2)c(=O)[nH]c1=O | 8.2 ± 1.4% | 
55 | Cc1ncc([N+](=O)[O-])n1CCO [CC1=NC=C([N+]([O-])=O)N1CCO] | 14 ± 3.1% | 
56 | CCOC(=O)c1c(C)oc2ncccc12 [CC1=C(C(OCC)=O)C2=C(O1)N=CC=C2] | -29 ± 12% | 
57 | CCOC(=O)c1c(C)oc2c1ccc[n+]2[O-] [CC1=C(C(OCC)=O)C2=C(O1)[N+]([O-])=CC=C2] | -2.9 ± 10% | 
58 | O=C1CCSc2nc(-c3ccccc3)nn21 [O=C1CCSC2=NC(C3=CC=CC=C3)=NN21] | 3 ± 1.7% | 
59 | CC(C)Cc1ccc(C(C)C(=O)O)cc1 (centres unmarked) [CC(C1=CC=C(CC(C)C)C=C1)C(O)=O] | -2.1 ± 0.21% | 
60 | Cc1ccc(S(=O)(=O)n2cccc2)cc1 [O=S(N1C=CC=C1)(C2=CC=C(C)C=C2)=O] | -22 ± 5.8% | 
61 | NC(=O)N1c2ccccc2C=Cc2ccccc21 [O=C(N)N1C2=CC=CC=C2C=CC3=CC=CC=C31] | 2.1 ± 5% | 
62 | O=C(NNc1ccccc1)NNc1ccccc1 [O=C(NNC1=CC=CC=C1)NNC2=CC=CC=C2] | 48 ± 1.8% | 
63 | CCN(CC)CCOC(=O)c1ccc(N)cc1 [O=C(OCCN(CC)CC)C1=CC=C(N)C=C1] | 50 ± 11% | 
64 | Cc1cc(Cl)ncc1N [ClC1=NC=C(N)C(C)=C1] | 8.8 ± 19% | 
65 | CNC(=O)c1c(C(C)C)oc2nc(N3CCCC3)ccc12 [O=C(NC)C1=C(C(C)C)OC2=C1C=CC(N3CCCC3)=N2] | 47 ± 10% | 
66 | Clc1cc2cn[nH]c2cn1 [Fragment 7] | 61 ± 9.1% | inhibition at 500 µM [2]: 60.6 ± 9.1%
67 | CN1C(=O)CN=C(c2ccccc2)c2cc(Cl)ccc21 | 37 ± 2.2% | 
68 | CCOC(=O)c1c(C)oc2nc(Cl)ccc12 [CC1=C(C(OCC)=O)C2=C(O1)N=C(Cl)C=C2] | -29 ± 18% | 
69 | Nc1cccc([N+](=O)[O-])c1 [NC1=CC=CC([N+]([O-])=O)=C1] | 27 ± 0.91% | 
70 | Nc1nnc(-c2ccccc2)o1 [NC1=NN=C(O1)C2=CC=CC=C2] | 16 ± 0.61% | 
